Data from PMC5309217, “Divergent Soybean Calmodulins Respond Similarly to Calcium Transients: Insight into Differential Target Regulation” (Frontiers in Plant Science, 2017).

How the values were obtained:
[1] = target: T1, CaM binding domain of Arabidopsis thaliana NADK2 (Arabidopsis thaliana, UniProt Q9C5W3); assay: NADK peptide affinity for CaMs (intrinsic Trp of the peptide)
T1 construct: purchased Ohio Peptide LLC (Powell, OH); host or cells: chemical synthesis
Method: (§1) The steady-state fluorescence measurements were performed using a Perkin-Elmer LS55 spectrofluorimeter at 20°C. The titration buffer consisted of 200 mM MOPS, 150 mM KCl, 2 mM EGTA (pH 7.0) ([Tikunova et al., 2002], [2010]; [Tikunova and Davis, 2004]). […] The free Ca^2+ concentration was calculated using the EGCA02 program by [Robertson and Potter (1984)]. The free Mg^2+ concentration was calculated using the MaxChelator program ([Bers et al., 2010]). Each reported Kd represents an average of at least three successive titrations ± standard error and fit with the Hill equation as previously described ([George et al., 1996]).
(§2) The Ca^2+ titrations in the presence of Mg^2+ were performed as described above with the addition of 3 mM Mg^2+ to the titration buffer.

[2] = Steady-state Ca^2+ sensitivity of CaMs in the presence of NADK peptide; type: binding; settings: vs MLCK peptide
Method: as §1, §2

binding of NADK peptide to CaMs in the absence of Ca^2+ ([1]; absence of Ca^2+, data not shown)	affinity of NADK peptide for Ca^2+-saturated CaMs compared to MLCK ([1]; vs MLCK peptide)	Kd ([1]; read-out: NADK peptide affinity (Kd) for Ca^2+-saturated CaM, WT CaM titrated into 1 μM NADK peptide, 100 μM Ca^2+ (pCa = 4), 200 mM MOPS, 150 mM KCl, 2 mM EGTA, pH 7.0, 20°C, mean ± SE of at least three titrations) [nM]	Substance	effect at sensitizing the CaMs to Ca^2+ compared to MLCK [2]
did not bind	weaker affinity		IYVHSKEGVWRTSAMVSRWK [NADK peptide]	substantially weaker effect
		760 ± 70	sCaM4: soybean CaM isoform 4; stress-induced CaM found in the soybean	
